Assay results published in PMC8520055 (Asian Journal of Pharmaceutical Sciences, 2021).
Where two headings read alike, the source gives them in different places. One block for each compound: values may come before it.

Legend:
[1] = plasma 4β-HC; cited from earlier work
HepaRG cells [2] = assay: Uptake of ATV and GCDCA-S in HepaRG cells in presence of RIF; type: cell-based; conditions: Homo sapiens
Pharmacokinetics of ATV [3] = type: in vivo, rats; conditions: for Plasma concentrations vs control rats: ATV 10 mg/kg p.o., rats treated with RIF 30 mg/kg i.v.
[4] = cited from earlier work
Oatps [5] = assay: Hepatic uptake of ATV and GCDCA-S after 7 d oral RIF or KTZ; type: in vivo, rats; conditions: for hepatic uptake of ATV: inhibitor p.o. 7 d (RIF 30 mg/kg, KTZ 20 mg/kg), ATV 10 mg/kg p.o., 30 min
Oatps [6] = assay: Reversibility of RIF inhibition of GCDCA-S uptake; type: in vivo, rats; conditions: RIF 30 mg/kg p.o. 7 d, then 7-d washout
[7] = Plasma concentration of RIF after a single oral dose; type: in vivo, rats; conditions: rat
Oatps [8] = assay: Endogenous substrates of Oatps; type: in vivo, rats
Oatps [9] = assay: Plasma GCDCA-S, cholesterol and 4β-HC after intravenous RIF; type: in vivo, rats
Liver function = type: in vivo, rats
Oatps [10] = conditions: read-out: IC50 for Oatps in vitro; cited from earlier work
[11] = Hepatic disposition of ATV and GCDCA-S in rats with ANIT-induced liver injury; type: in vivo; conditions: ANIT-induced liver injury (Fig. S15)
Pharmacokinetics of ATV [12] = type: in vivo, rats; conditions: for metabolite plasma concentrations vs control: ATV 10 mg/kg p.o., at 7.5, 15, 30 and 60 min after KTZ 20 mg/kg i.v.
Cyp3a [13] = assay: Plasma GCDCA-S, cholesterol and 4β-HC after intravenous KTZ
HepaRG cells [14] = assay: Metabolism of ATV and cholesterol in HepaRG cells in presence of KTZ; type: cell-based, human; conditions: KTZ 10 µM, HepaRG cells (Fig. S14)
[15] = Plasma and hepatic concentration of KTZ after a single oral dose; type: in vivo, rats; conditions: for concentration at 1 h: rat, plasma, po; for Hepatic concentration: 1 h
Cyp3a [16] = assay: Endogenous Cyp3a markers; type: in vivo, rats
[17] = RIF 30-120 mg/kg single oral dose
[18] = RIF 30-120 mg/kg single oral dose, 2 h
[19] = KTZ single oral dose 20-80 mg/kg

SMILES: CC(C)CCC[C@@H](C)[C@H]1CC[C@H]2[C@@H]3CC=C4[C@@H](O)[C@@H](O)CC[C@]4(C)[C@H]3CC[C@]12C [4β-HC, 4β-hydroxycholesterol]
half-life [1]: ~17 days

SMILES: CO[C@H]1/C=C/O[C@@]2(C)Oc3c(C)c(O)c4c(O)c(c(/C=N/N5CCN(C)CC5)c(O)c4c3C2=O)NC(=O)/C(C)=C\C=C\[C@H](C)[C@H](O)[C@@H](C)[C@@H](O)[C@@H](C)[C@H](OC(C)=O)[C@@H]1C [RIF, rifampicin]
IC50 (HepaRG cells [2]; read-out: IC50 for uptake of ATV): 1000 nM
IC50 (HepaRG cells [2]; read-out: IC50 for uptake of GCDCA-S): 9800 nM
plasma RIF level (Pharmacokinetics of ATV [3]; after single i.v. RIF 30 mg/kg, over 0-360 min (Fig. S8)): above 5.5 µM
plasma unbound fraction [4]: 0.265
hepatic uptake of GCDCA-S (Oatps [5]; RIF 30 mg/kg p.o. 7 d): decreased
plasma concentration of GCDCA-S (Oatps [5]; RIF 30 mg/kg p.o. 7 d): significantly increased
hepatic uptake of ATV (Oatps [5]): greatly attenuated
effect on the hepatic uptake of GCDCA-S after washout (Oatps [6]): fully reversed
plasma GCDCA-S level vs vehicle-treated rats after washout (Oatps [6]): not significant different
concentration at 2 h ([7]; 30 mg/kg): 11.6 µM
concentration at 2 h ([7]; 60 mg/kg): 22.4 µM
concentration at 2 h ([7]; 120 mg/kg): 26.5 µM
hepatic uptake of CP I/III (Oatps [8]; [17]): did not inhibit
plasma concentrations of CP I/III (Oatps [8]; [17]): did not affect
biosynthesis of GCDCA-S from GCDCA in the liver (Oatps [8]; RIF 30-120 mg/kg single oral dose (Fig. S3)): did not affect
hepatic uptake ratio of CA, GCA, GUDCA, TCDCA, TUDCA, THDCA, TLCA and GCDCA-S (Oatps [8]; [18]): decreased
plasma CA, CDCA, HDCA, GCA, GUDCA, TCDCA, TDCA, THDCA and GCDCA-S levels (Oatps [8]; [18]): dose-dependently increased
plasma concentrations of GCDCA-S (Oatps [9]; after intravenous RIF 30 mg/kg): significantly increased
plasma concentration of cholesterol and 4β-HC (Oatps [9]; after intravenous RIF 30 mg/kg (Fig. S7)): did not affect
liver function (serum AST, ALT, ALP) (Liver function; RIF 30, 60, 120 mg/kg single oral dose (Fig. S2)): not affect liver function
IC50 (Oatps [10]): 140 to 1700 nM

SMILES: S=C=Nc1cccc2ccccc12 [ANIT, α-naphthylisothiocyanate]
liver mRNA level of Oatp [11]: decreased

More lines, main results first:

Plasma concentrations vs control rats (Pharmacokinetics of ATV [3]): markedly higher
metabolite plasma concentrations vs control (Pharmacokinetics of ATV [12]): significantly decreased
SMILES: CC(C)c1c(C(=O)Nc2ccc(O)cc2)c(-c2ccccc2)c(-c2ccc(F)cc2)n1CC[C@@H](O)C[C@@H](O)CC(=O)O [4-OH ATV, 4‑hydroxy-atorvastatin]

plasma levels of cholesterol and its metabolite 4β-HC (Cyp3a [13]; after intravenous KTZ 20 mg/kg): not affected
plasma concentrations of GCDCA-S (Cyp3a [13]; after intravenous KTZ 20 mg/kg (Fig. S9)): not changed
KTZ level (plasma) (Pharmacokinetics of ATV [12]; after single i.v. KTZ 20 mg/kg, over 0-360 min (Fig. S10)): above 1.5 µM
concentration at 1 h ([15]; 20 mg/kg): 23.9 µM
concentration at 1 h ([15]; 40 mg/kg): 31.4 µM
concentration at 1 h ([15]; 80 mg/kg): 49.6 µM
Hepatic concentration ([15]; single oral dose 20 mg/kg): 87.1 µmol/kg tissue
Hepatic concentration ([15]; single oral dose 40 mg/kg): 119.2 µmol/kg tissue
Hepatic concentration ([15]; single oral dose 80 mg/kg): 160.6 µmol/kg tissue
blood concentration of 6β-HC (Cyp3a [16]; KTZ multiple-dose 7 d): increased
plasma concentrations of 4β-HC (Cyp3a [16]; KTZ repeated oral dose 7 d, 20-80 mg/kg): markedly elevated
hepatic 6β-HC levels (Cyp3a [16]; [19]): dose-dependently decreased
plasma 6β-HC levels (Cyp3a [16]; [19]): not been influenced
Hepatic 4β-HC levels (Cyp3a [16]; KTZ single oral dose 20-80 mg/kg (Fig. S5)): significantly increased
SMILES: CC(=O)N1CCN(c2ccc(OCC3COC(Cn4ccnc4)(c4ccc(Cl)cc4Cl)O3)cc2)CC1 (stereo not drawn) [KTZ, ketoconazole]
degradation ATV to 2-OH ATV and 4-OH ATV (HepaRG cells [14]): inhibited
formation of 4β-HC (HepaRG cells [14]): did not affect
hepatic uptake of ATV (Oatps [5]): minimally impacted
liver function (serum AST, ALT, ALP) (Liver function; KTZ 20, 40, 80 mg/kg single or multiple oral dose (Fig. S2)): not affect liver function

Plasma concentrations vs control rats (Pharmacokinetics of ATV [3]): markedly higher
metabolite plasma concentrations vs control (Pharmacokinetics of ATV [12]): significantly decreased
SMILES: CC(C)c1c(C(=O)Nc2ccccc2O)c(-c2ccccc2)c(-c2ccc(F)cc2)n1CCC(O)CC(O)CC(=O)O (stereo not drawn) [2-OH ATV, 2‑hydroxy-atorvastatin]
